The OPERA property sets (Mansouri et al. 2018)
Where a SMILES comes first, the peptide text is derived from it.

Compound	logP
O=C(NC(Cc1c[nH]c2ccccc12)C(=O)O)OCc1ccccc1 (configuration not stated)	3.2
CC(C)NC(=NC#N)NS(=O)(=O)c1cnccc1NC1CCCCC1	1.53
CCCCOc1ccc(NC(=O)OCCN2CCCCC2)cc1	4.69
CCCN(CCC)C1CCc2c(OC)cccc2C1C (configuration not stated)	4.76
CC(C(=O)OC1CCCCC1)S(=O)(=O)c1ccc([N+](=O)[O-])cc1 (configuration not stated)	2.82
COC(=O)c1cc2ccc3cccc4ccc(c1)c2c34	4.85
CC(C)CC(N)C(=O)N1CCCC1C(=O)NC(CC(C)C)C(=O)NC(CC(C)C)C(=O)O (configuration not stated) (H-LPLL-OH; configuration not given here)	-0.92
COC(=O)C(C)=CC1C(C(=O)OCc2cccc(COc3ccccc3)c2)C1(C)C (configuration not stated)	6.06
CCCC(=O)NCCCCCN(O)C(=O)CCC(=O)NCCCCCN(O)C(=O)CCC(=O)NCCCCCN(O)C(C)=O	0.42
O=c1cc(CBr)occ1O	0.61
Cc1cccc2c1C(=O)N(CCO[N+](=O)[O-])CO2	2.54
CCC(C)C(NC(=O)C(Cc1ccc(O)cc1)NC(=O)C(C)N)C(=O)O (configuration not stated)	-2.04
CC(C)Nc1nc(N)nc(O)n1	1.27
O=C(Nc1ccccc1)c1ccccc1I	2.85
OC(CNCc1ccccc1)CON=C(C1CC1)C1CC1 (configuration not stated)	2.08
CC(C)(C)N=O	0.91
CC(C)CC(N)C(=O)NC(CC(C)C)C(=O)NC(CC(C)C)C(=O)N1CCCC1C(=O)O (configuration not stated) (H-LLLP-OH; configuration not given here)	-1.18
CCCc1c(O)c(=O)cc(C)n1C	0.4
OCCN1CCN(CCn2nc3ccccc3n2)CC1	0.43
O=c1cc(-c2ccccc2Cl)oc2ccccc12	3.61
S=c1[nH]nc(Cn2ccc3ccccc32)n1-c1ccccc1	2.68
COc1ccc(-c2ccsc2)cc1CNC1CCCNC1c1ccccc1 (configuration not stated)	4.8
CC(=O)OCC1=C(C(=O)O)N2C(=O)[C@@H](NC(=O)Cc3ccccc3)[C@H]2SC1	0.2
NC1=NCC(CN2CC=CCC2)O1 (configuration not stated)	0.19
COc1ccc(C2Cc3cc(OC(=O)C(C)(C)C)ccc3N(CCN(C)C)C(=O)C2OC(C)=O)cc1 (configuration not stated)	4.9
CCC(C)(C)c1ccc(OCC2CN=C(N)O2)cc1 (configuration not stated)	3.69

Compound	logP
C#CCOc1noc2c1CNCC2	0.4
Cc1nc2ccccc2c(=O)n1CCC(=O)O	0.93
Nc1nc(N)c2c(Cl)cccc2n1	1.72
OCCCCCNc1ncnc2c1ncn2C1OC(CO)C(O)C1O (configuration not stated)	-0.24
Cc1cccc(C=[N+]([O-])C(C)(C)C)c1	1.6
COC(=O)C1=C(C)NC(C)=C(C(=O)OCC=Cc2ccccc2)C1c1cccc([N+](=O)[O-])c1 (configuration not stated)	5.69
Cc1coc2cc3oc(=O)ccc3cc12	2.47
CCN(CCO)CCCOc1cc2ncnc(Nc3cc(CC(=O)Nc4cccc(F)c4)[nH]n3)c2cc1OC	3.7
CN(C)c1cccc2nc(N)nc(N)c12	1.65
NC(Cc1ccccc1)C(=O)NCC(=O)NCC(=O)NC(Cc1ccccc1)C(=O)O (configuration not stated) (H-FGGF-OH; configuration not given here)	-1.51
Cc1ccccc1N1CCN(CC2CN=C(N)O2)CC1 (configuration not stated)	1.78
CCC(CC)(C(=O)OC)S(=O)(=O)c1ccc([N+](=O)[O-])cc1	2.24
CN1COCc2c1ccc1cc3ccc(N)c(CO)c3nc21	1.64
O=[N+]([O-])c1nccn1CC(O)C(O)CF (configuration not stated)	-0.77
COc1cccc2nc(N)nc(N)c12	1.18
C=CCNc1ncnc2nc[nH]c12	1.09
O=C(O)Cc1ccccc1Nc1cc(Cl)cc(Cl)c1	5.07
O=C(NC1CCCCC1)NS(=O)(=O)c1cnccc1NC1CCCCCCC1	4.96
CC(=O)c1cc2cccc3ccc4cccc1c4c32	4.16
O=[N+]([O-])c1cccc(CNc2ncnc3nc[nH]c23)c1	2.03
COc1ccc(-c2cn3cc(N)cnc3n2)c(OC)c1	1.68
CCN(CC)c1ccc(NC(=O)N(C)OC)cc1	2.33
Clc1c(Br)cccc1N=C1NCCN1	1.82
NC(Cc1ccccc1)C(=O)N1CCCC1C(=O)O (stereo not drawn) (H-Phe-Pro-OH; configuration not given here)	-1.23
FC(F)(F)c1ccc(CNc2[nH]cnc3ncnc2-3)cc1	3.19
Brc1cc(Br)c(-c2ccccc2)c(Br)c1	6.03

Compound	logP
CC1=C(C#N)C(C)(C)C(C#N)=C(C)N1	2.47
CC(C)c1cc(=S)ss1	2.75
CC(=O)NC(CCCNC(=O)N(CCCl)N=O)C(=O)NCc1ccccc1 (configuration not stated)	1.33
O=C(Nc1ncc([N+](=O)[O-])s1)c1ccc(Br)cc1	3.58
CCOc1ccccc1CNc1[nH]cnc2ncnc1-2	2.72
CCCCCNCc1ccc(C)cc1	4.26
O=c1cc(-c2ccccc2)on1-c1ccc(Cl)cc1	4.1
CCCC(=NOCC)C1=C(O)CC2(CCCCC2)OC1=O	3.62
Nc1ccn(C2CC(CO)C(O)C2O)c(=O)n1 (configuration not stated)	-2.41
c1ccc(Cn2cccn2)cc1	1.78
OCCCCCCCNc1ncnc2c1ncn2C1OC(CO)C(O)C1O (configuration not stated)	0.68
N[C@@H](Cc1c[nH]c2ccccc12)C(=O)N[C@@H](Cc1c[nH]c2ccccc12)C(=O)O (H-Trp-Trp-OH)	-0.27
COc1ccc(C2Cc3c(C(=O)OCc4ccccc4)cccc3N(CCN(C)C)C(=O)C2OC(C)=O)cc1 (configuration not stated)	5.3
COC(=O)C(Cc1ccccc1)(Cc1ccccc1)S(=O)(=O)c1ccc([N+](=O)[O-])cc1	4.46
Cc1nc2c3c(c(C(=O)N4CCCC4)cn2c1C)CCC(c1ccccc1)O3 (configuration not stated)	3.6
CC(NC(=O)C(N)Cc1c[nH]c2ccccc12)C(=O)NC(C(N)=O)C(C)C (stereo not drawn) (H-Trp-Ala-Val-NH2; configuration not given here)	0.4
O=C(O)CCCCCON=C(c1ccccc1)c1ccncn1	2.66
COC(=O)C(=Cc1ccccc1)S(=O)(=O)c1ccc([N+](=O)[O-])cc1	2.9
Clc1cccc(N2CCN(CCn3nnc4ccccc43)CC2)c1	3.45
Cc1ccc(C)c(Cc2cnc[nH]2)c1	2.72
CC(C)NC(=NC#N)NS(=O)(=O)c1cnccc1Nc1ccc(Cl)cc1	2.37
CC(C)CC(Nc1ccc([N+](=O)[O-])cc1[N+](=O)[O-])C(=O)O (configuration not stated)	3.25
CCCOCCCNc1ncnc2c1ncn2C1OC(CO)C(O)C1O (configuration not stated)	0.81
COc1ccc(S(C)(=O)=O)cc1CNC1CCCNC1c1ccccc1 (configuration not stated)	1.9
COP(=O)(OC)Oc1c(Cl)cc(C)cc1Cl	2.66
CC(C)N(CCC(C(N)=O)c1ccccc1Cl)C(C)C (configuration not stated)	2.83

Compound	logP
COc1cc(OC)c(C=[N+]([O-])C(C)(C)C)c(OC)c1	1.2
O=C(NS(=O)(=O)c1cnccc1NC1CCCCCC1)N1CCCCCC1	4.43
Cc1c(C)c2cc3c(C)coc3c(C)c2oc1=O	3.62
c1ccc2c(c1)OCC(C1=NCCN1)O2 (configuration not stated)	1.63
Cc1ccc(CO)c(C=NNC(=O)c2cccc(Br)c2)c1O	3.91
CC(=O)OC(C)(C)C1CCC2(C)CCCC(O)C2C1 (configuration not stated)	3.62
CCCOCCCNc1[nH]cnc2ncnc1-2	1.74
CSCC(NC(C)=O)C(N)=O (configuration not stated)	-0.6
CC(=O)OC(C)(C)C1CCC2(C)CCCC(=O)C2C1 (configuration not stated)	3.2
CNc1ncnc2c1ncn2C1OC(CO)C(O)C1O (configuration not stated)	-0.52
Cc1c(O)c(=O)ccn1CCCOC(=O)c1ccccn1	-0.18
Cc1cccc(Cc2c[nH]cn2)c1	2.39
O=C(O)C1CSC(c2ccc(O)cc2O)=N1 (configuration not stated)	1.1
O=c1cc(CSc2nc3ccccc3[nH]2)occ1O	1.51
CCCCCNc1ncnc2nc[nH]c12	2.58
NC1=NCC(CN2CCN(c3ccc([N+](=O)[O-])cc3)CC2)O1 (configuration not stated)	1.23
Cc1coc2c(C)c3oc(=O)ccc3cc12	2.81
O=C(Cc1ccccc1)Nc1[nH]cnc2ncnc1-2	1.19
CC(C)C1(C)N=C(c2ncc(CO)cc2C(=O)O)NC1=O (configuration not stated)	-0.21
CCCNc1[nH]cnc2ncnc1-2	1.44
CC1(C)Oc2ccc(C#N)cc2C(N2CCCC2=O)C1O (configuration not stated)	2.32
ClCC1(C(Cl)Cl)C2C(Cl)CC1(C(Cl)Cl)C(Cl)C2Cl (configuration not stated)	5.19
Cc1cc2ccc3occc3c2oc1=O	2.57
NC(=O)c1cccc(Cc2ncccn2)c1	0.28
CCOC(=O)c1[nH]cc(-c2ccc(Cl)cc2)c1N1CCOCC1	3.9
CCOC(=O)Nc1ccc2cc3ccc4c(c3nc2c1)COC(=O)N4	2

Compound	logP
COc1ccc(CNc2[nH]cnc3ncnc2-3)cc1	2.17
CN(C)CCOc1ccccc1Cl	2.87
C[C@@H]1C[C@H]2[C@@H]3CCC4=CC(=O)C=C[C@]4(C)[C@@]3(Cl)[C@@H](O)C[C@]2(C)[C@@]1(OC(=O)c1ccco1)C(=O)CCl	3.9
O=C1N=C(N2CCOCC2)CN1Cc1c(Cl)cccc1Cl	1.3
CCCCCCCCNC1=NS(=O)N=C1NCCSCc1ccc(CN(C)C)o1 (configuration not stated)	4.47
COc1c2ccccc2cc2ccccc12	4.36
CC(C)(C)SSc1ncc[nH]1	2.56
COc1coc(CCl)cc1=O	0.16
COc1ccccc1OCCN(C)C	1.42
O=c1cc(-c2ccccc2)oc2c(Cl)cc(Cl)cc12	4.76
CSCCC(NC(=O)C(N)CC(C)C)C(=O)O (stereo not drawn) (H-Leu-Met-OH; configuration not given here)	-1.87
Cc1ccc(C(=O)O)cc1[N+](=O)[O-]	2.35
COC(=O)C(C)NP(=O)(OCC1C=CC(n2cc(C)c(=O)[nH]c2=O)O1)Oc1ccc(C)cc1 (configuration not stated)	1.19
Cc1ccccc1CNc1[nH]cnc2ncnc1-2	2.58
c1ccc2c(c1)OCC(c1ncc[nH]1)O2 (configuration not stated)	1.76
O=C1CNC(=O)C(Cc2c[nH]c3ccccc23)N1 (configuration not stated)	0.07
Nc1ccc(S(=O)(=O)Nc2cccc3[nH]ccc23)cc1	1.41
O=C(O)Cc1ccccc1Nc1c(F)cccc1F	3.57
CC(C)CC(N)C(=O)NC(CC(C)C)C(=O)NC(CC(C)C)C(=O)NC(C(=O)O)C(C)C (configuration not stated) (H-LLLV-OH; configuration not given here)	-0.51
[O-][n+]1ccc(-c2ccccc2)cc1	0.93
COc1cccc(C2CCCCC2=O)c1 (configuration not stated)	2.42
Cc1cccc(C)c1Cc1cn[nH]c1	3.6
Fc1cccc(CNc2ncnc3nc[nH]c23)c1	2.31
